The text below walks through data of patent US20220017468A1, “ISOQUINOLINE COMPOUNDS AND THEIR USE IN TREATING AhR IMBALANCE” (Dermavant Sciences GmbH, priority 2020, published 2022).

Data set [1] deals with AhR pathway (CYP1A1 mRNA). Kind of data set: sRICA ex vivo human skin explant, CYP1A1 induction. Format: cell-based. The following applies: 1 μM or 10 μM in the baso-lateral media. From the text:
A liquid-air interface skin explant culture with the in situ activation of immunocompetent cells, termed sRICA for skin-Resident Immune Cell Activation model was previously reported (Smith et al., (2016) PLoS One, 11(2)). In this assay, specific cytokine profiles of inflammatory skin diseases can be induced, including the Th17-type cytokines, IL17A, IL17F and IL22. Reduction of biomarkers in this assay indicates biological activity of the test compound.
Ex vivo human skin obtained from abdominoplasty surgery was processed to remove fat and dermatomed the tissue to ˜750 microns. Dermatomed skin was then cleaned in two serial rinses of 5-10 minutes each in room temperature PBS containing an antibiotic/antimycotic solution.
Skin was treated as asceptic from this point on; all further manipulations were performed in a class II biosafety cabinet. […]
The harvested skin tissue were stored in RNAlater until use. […] RNA was diluted to a concentration of 23.6 ng/ul (total of 100 ng RNA), and was used as template in a 10 uL PCR volume using Applied Biosciences RNA-to-CT 1 Step kit (AB Catalog # 4392938) and the specific TaqMan probes foreach gene to be quantified. […]
RNA levels of gene of interest's Relative Expression was calculated using the Delta Delta CT formula.
RNA was isolated from the tissue harvested at 24 hr and 48 hr post stimulation and gene expression was assessed by quantitative PCR. […]

Data set [2] deals with primary human cell culture platforms. Description: BioMAP Diversity Plus profiling. Format: cell-based.
Data set [3] is described as follows: metabolic stability in hepatocytes, dog. Type of data set: in vitro ADME.
A short description of data set [4]: metabolic stability in hepatocytes, mouse. Format: in vitro ADME.
In the next data set the target is T1, AhR (Homo sapiens, UniProt P35869).
T1 construct: LS-180 cells stably transfected with a CYP1A1 promoter-linked beta-lactamase gene reporter construct; endogenous in cells; host or cells: CYP1A1-bla LS-180 cells
T1 sequence (P35869 11-848): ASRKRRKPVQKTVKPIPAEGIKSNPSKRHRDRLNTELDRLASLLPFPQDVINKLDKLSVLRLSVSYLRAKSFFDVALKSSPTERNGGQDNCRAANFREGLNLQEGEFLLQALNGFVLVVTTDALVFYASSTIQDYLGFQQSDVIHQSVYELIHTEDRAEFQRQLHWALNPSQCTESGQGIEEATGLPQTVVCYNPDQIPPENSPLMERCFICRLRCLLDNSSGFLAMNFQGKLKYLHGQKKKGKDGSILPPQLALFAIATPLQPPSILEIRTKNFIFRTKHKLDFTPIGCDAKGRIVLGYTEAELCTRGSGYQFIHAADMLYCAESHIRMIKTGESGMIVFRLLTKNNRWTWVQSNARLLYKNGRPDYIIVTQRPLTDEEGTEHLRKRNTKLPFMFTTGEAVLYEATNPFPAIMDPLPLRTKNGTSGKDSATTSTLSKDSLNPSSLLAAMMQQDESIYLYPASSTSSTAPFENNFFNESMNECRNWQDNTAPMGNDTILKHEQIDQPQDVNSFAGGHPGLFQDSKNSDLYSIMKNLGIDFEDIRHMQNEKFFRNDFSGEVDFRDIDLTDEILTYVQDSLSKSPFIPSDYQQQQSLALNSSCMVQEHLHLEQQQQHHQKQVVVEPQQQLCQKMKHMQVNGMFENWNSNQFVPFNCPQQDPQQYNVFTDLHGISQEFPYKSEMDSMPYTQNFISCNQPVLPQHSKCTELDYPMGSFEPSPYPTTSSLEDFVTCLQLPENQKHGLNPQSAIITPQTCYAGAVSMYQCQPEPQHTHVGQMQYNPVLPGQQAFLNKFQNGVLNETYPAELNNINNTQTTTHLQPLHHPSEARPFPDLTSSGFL
Kind of data set: CYP1A1-bla LS-180 AhR agonist assay. Type of data set: cell-based.

What is called half-life is how long it takes for the measured level to halve. A low value points to rapid decline. Usually CLint scaled stands for a measure of how fast metabolising enzymes remove a compound, apart from limits set by blood flow. For orientation: EC50 means the concentration giving half of the maximal effect. Read a high EC50 as weaker potency. With `CC(C)c1c(O)cc(-c2cc3ccccc3cn2)cc1O`, the “AhR pathway activation as measured by cyp1a1 gene induction” value in data set [1] is “confirmed”. Besides, in data set [2] (1 μM, 330 nM, 110 nM and 37 nM), the “effect on B cell proliferation” value was “anti-proliferative to B cells”. The increased biomarkers result in data set [2] (1 μM, 330 nM, 110 nM and 37 nM) was “increased IL8, IL1α, sPGE2, ICAM-1, and E-selectin”. Also, the “reduced biomarkers (M-CSF, sIL-17A, sIL-2, sIL-6, sIL-10, Eot3, sTNFα, MCP-1, VCAM-1, MIP-1)” value in data set [2] (1 μM, 330 nM, 110 nM and 37 nM) is given as “reductions in various cytokines/chemokines”. Besides, in data set [2] (profiles overlaid), the “sIL-17 in BioMAP” value was “observed reduction in sIL-17”. The values for the half-life at 0.5 μM in data set [3] and in data set [4] were 31.9 min and 8.39 min, respectively. In addition, the “CLint, hep” value in data set [3] (0.5 μM) came out at 7.39 mL/min/g liver; in data set [4] (0.5 μM), 22.3 mL/min/g liver. Further, the CLint scaled at 0.5 μM in data set [3] (read-out: Scaled CLint, hep) worked out at 240 mL/min/kg; in data set [4] (read-out: Scaled CLint, hep) it was 1140 mL/min/kg. The compound further registered an EC50 at AhR of 15.8 nM.
